Test results reported in US8148428B2 (priority 2006, dated 2012).
Read-outs that look alike come from different tables or passages of the source.

Assays:
[1] = test system: Lassa GP-pseudotyped-virus; assay: microbe, parasite or virus in culture; assay type: cell-based, Lassa fever virus; design: Activity against Lassa GP-pseudotyped-virus specificity: reference not given here
[2] = test system: Lassa fever virus (Josiah strain); assay: organism not typed; assay type: cell-based; settings: for EC50: read-out: Activity vs. LFV EC50
[3] = test system: Guanarito envelope pseudotyped virus; assay: organism not typed; assay type: cell-based; settings: read-out: EC50, pseudotyped viral infection, Guanarito envelope
[4] = test system: Tacaribe envelope pseudotyped virus; assay: organism not typed; assay type: cell-based; settings: read-out: EC50, pseudotyped viral infection, Tacaribe envelope
[5] = Human immunodeficiency virus 1, read-out: Activity against Lassa GP-pseudotyped-virus EC50

SMILES | Activity against Lassa GP-pseudotyped-virus specificity [1] | EC50 [1, 5] [nM] | further results
COc1ccc(C(C)=NNC(=O)C2CC2c2ccccc2)cc1 (stereo in doubt) [Compound 600180, 2-Phenyl-cyclopropanecarboxylic acid [1-(4-methoxy-phenyl)-eth-(Z)-ylidene]-hydrazide] | >4000 | < 3 | –
C/C(=N\NC(=O)C1CC1c1ccccc1)c1ccc(N)cc1 (stereo not drawn) [Compound 408306, 2-Phenyl-cyclopropanecarboxylic acid [1-(4-amino-phenyl)-eth-(E)-ylidene]-hydrazide] | >2000 | 20 | Activity vs. LFV T.I. (therapeutic index) [2]: >100; EC50 [2]: 500 nM
O=C(N/N=C/c1ccccc1)[C@H]1C[C@@H]1c1ccccc1 [Compound 600075, (1S,2S)-2-Phenyl-cyclopropanecarboxylic acid [1-phenyl-meth-(E)-ylidene]-hydrazide] | – | > 30000 | –
C/C(=N\NC(=O)C1CC1c1ccccc1)C1CC1 (stereo not drawn) [Compound 600086, 2-Phenyl-cyclopropanecarboxylic acid [1-cyclopropyl-eth-(E)-ylidene]-hydrazide] | >2 | 10000 | –
O=C1Nc2ccccc2/C1=N\NC(=O)C1CC1c1ccccc1 (stereo not drawn) [Compound 600087, 2-Phenyl-cyclopropanecarboxylic acid [2-oxo-1,2-dihydro-indol-(3E)-ylidene]-hydrazide] | >700 | 40 | –
C/C(=N\NC(=O)CCc1ccccc1)c1cccc(N)c1 [Compound 600090, 3-Phenyl-propionic acid [1-(3-amino-phenyl)-eth-(E)-ylidene]-hydrazide] | >18 | 1600 | –
CCOC(=O)C/C(C)=N/NC(=O)C1CC1c1ccccc1 (stereo not drawn) [Compound 600091, 3-[(2-Phenyl-cyclopropanecarbonyl)-hydrazono]-butyric acid ethyl ester] | >18 | 1600 | –
C/C(=N/NC(=O)C1CC1c1ccccc1)c1ccccc1Cl (stereo not drawn) [Compound 600092, 2-Phenyl-cyclopropanecarboxylic acid [1-(2-chloro-phenyl)-eth-(Z)-ylidene]-hydrazide] | 20 | 200 | –
C/C(=N/NC(=O)C1CC1c1ccccc1)c1cccs1 (stereo not drawn) [Compound 600093, 2-Phenyl-cyclopropartecarboxylic acid [1-thiophen-2-yl-eth-(Z)-ylidene]-hydrazide] | 2 | 14000 | –
C/C(=N/NC(=O)C1CC1c1ccccc1)c1ccc(NC(=O)C2CC2)cc1 (stereo not drawn) [Compound 600100, Cyclopropanecarboxylic acid (4-[1-[(2-phenyl-cyclopropanecarbonyl)-hydrazono]-ethyl]-phenyl)-amide] | >20,000 | 2 | EC50 [2]: < 400 nM
COc1ccc(/C(C)=N/NC(=O)C2CC2c2ccccc2)c(OC)c1 (stereo not drawn) [Compound 600120, 2-Phenyl-cyclopropanecarboxylic acid [1-(2,4-dimethoxy-phenyl)-eth-(E)-ylidene]-hydrazide] | 180 | 120 | –
CC(C)/C(=N\NC(=O)C1CC1c1ccccc1)c1ccccc1 (stereo not drawn) [Compound 600123] | 60 | – | EC50 ([1]; read-out: Activity against Lassa GP-pseudotyped-virus EC50): 200 nM
C/C(=N\NC(=O)C1CC1c1ccccc1)c1ccc(C)cc1 (stereo not drawn) [Compound 600124, 2-Phenyl-cyclopropanecarboxylic acid [1-p-tolyl-eth-(E)-ylidene]-hydrazide] | >700 | < 30 | –
Cc1ccc2c(c1Br)C(=NNC(=O)C1CC1c1ccccc1)C(=O)N2 (stereo not drawn) [Compound 600140, 2-Phenyl-cyclopropanecarboxylic acid [4-bromo-5-methyl-2-oxo-1,2-dihydro-indol-(3E)-ylidene]-hydrazide] | >30 | 300 | –
C/C(=N\NC(=O)C1CC1c1ccccc1)c1ccc(-c2ccccc2)cc1 (stereo not drawn) [Compound 600152, 2-Phenyl-cyclopropanecarboxylic acid [1-biphenyl-4-yl-eth-(E)-ylidene]-hydrazide] | >8000 | 1 | –
COc1ccc(/C(C)=N/NC(=O)C2CC2c2ccccc2)cc1OC (stereo not drawn) [Compound 600154, 2-Phenyl-cyctopropanecarboxylic acid [1-(3,4-dimethoxy-phenyl)-eth-(E)-ylidene]-hydrazide] | >50 | 200 | –
O=C1Nc2ccc([N+](=O)[O-])cc2/C1=N/NC(=O)C1CC1c1ccccc1 (stereo not drawn) [Compound 600155, 2-Phenyl-cyclopropanecarboxylic acid [5-nitro-2-oxo-1,2-dihydro-indol-(3Z)-ylidene]-hydrazide] | >40 | 300 | –
C/C(=N/NC(=O)C1CC1c1ccccc1)c1ccc2c3c(cccc13)CC2 (stereo not drawn) [Compound 600156] | none | 2000 | –
C/C(=N\NC(=O)C1CC1c1ccccc1)c1ccc(NC(=O)c2ccco2)cc1 (stereo not drawn) [Compound 600161, Furan-2-carboxylic acid (4-[1-[(2-phenyl-cyclopropanecarbonyl)-hydrazono]-ethyl]-phenyl)-amide] | >90,000 | 0.5 | Activity vs. LFV T.I. (therapeutic index) [2]: >2000; EC50 [2]: < 20 nM; EC50 [3]: 300 nM; EC50 [4]: 800 nM
C/C(=N/NC(=O)C1CC1c1ccccc1)c1ccc(NC(=O)c2ccc(Cl)cc2Cl)cc1 (stereo not drawn) [Compound 600162, 2,4-Dichloro-N-(4-[1-[(2-Phenyl-cyclopropanecarbonyl)-hydrazono]ethyl]-phenyl)-benzamide] | >4000 | < 3 | –
C/C(=N\NC(=O)C1CC1c1ccccc1)c1ccccc1O (stereo not drawn) [Compound 600176, 2-Phenyl-cyclopropanecarboxylic acid [1-(2-hydroxy-phenyl)-eth-(E)-ylidene]-hydrazide] | >14 | 800 | –
C/C(=N\NC(=O)C1CC1c1ccccc1)c1ccc(N(C)C)cc1 (stereo not drawn) [Compound 600178, 2-Phenyl-cyclopropanecarboxylic acid [1-(4-dimethylamino-phenyl)-eth-(E)-ylidene]-hydrazide] | >4000 | < 3 | –
C/C(=N\NC(=O)C1CC1c1ccccc1)c1ccc(C2CCCCC2)cc1 (stereo not drawn) [Compound 600181, 2-Phenyl-cyclopropanecarboxylic acid [1-(4-cyclohexyl-phenyl)-eth-(E)-ylidene]-hydrazide] | >400 | 20 | –
C/C(=N/NC(=O)C1CC1c1ccc(C(C)(C)C)cc1)c1cccc(NC(=O)c2ccccc2F)c1 (stereo not drawn) [Compound 600182, N-[3-(1-[[2-(4-tert-Butyl-phenyl)-cyclopropanecarbonyl]-hydrazono]-ethyl)-phenyl]-2-fluoro-benzamide] | >15 | 800 | –
C/C(=N\NC(=O)C1CC1c1ccccc1)c1ccc(NC(=O)c2ccc(Cl)s2)cc1 (stereo not drawn) [Compound 600183, 5-Chloro-thiophene-2-carboxylic acid (4-[1-[(2-phenyl-cyclopropanecarbonyl)-hydrazono]-ethyl]-phenyl)-amide] | >4000 | < 3 | –
CC(=O)Nc1ccc(/C(C)=N/NC(=O)C2CC2c2ccccc2)cc1 (stereo not drawn) [Compound 600184, N-(4-[1-[(2-phenyl-cyclopropanecarbonyl)-hydrazono]-ethyl}-phenyl)-acetamide] | >3000 | 3 | –
C/C(=N\NC(=O)C1CC1c1ccccc1)c1cccc(NC(=O)c2ccccc2F)c1 (stereo not drawn) [Compound 600185] | >1.3 | 9000 | –
C/C(=N/NC(=O)C1CC1c1ccccc1)c1ccc(NC(=O)C(F)(F)F)cc1 (stereo not drawn) [Compound 600187, 2,2,2-Trifluoro-N-(4-[1-[(2-phenyl-cyclopropanecarbonyl)-hydrazono]-ethyl]-phenyl)-acetamide] | >4000 | 3 | –
C/C(=N/NC(=O)C1CC1c1ccc(C(C)(C)C)cc1)c1ccc(F)cc1 (stereo not drawn) [Compound 600197, 2-(4-tert-Butyl-phenyl)-cyclopropanecarboxylic acid [1-(4-fluoro-phenyl)-eth-(Z)-ylidene]-hydrazide] | 650 | 20 | –
COc1ccc(/C(C)=N\NC(=O)C2CC2c2ccc(C(C)(C)C)cc2)cc1[N+](=O)[O-] (stereo not drawn) [Compound 600198, 2-(4-tert-Butyl-phenyl)-cyclopropanecarboxylic acid [1-(4-methoxy-3-nitro-phenyl)-eth-(Z)-ylidene]-hydrazide] | >800 | 14 | –
